Literature values in PMC7904743, “WIDOCK: a reactive docking protocol for virtual screening of covalent inhibitors” (Journal of Computer-Aided Molecular Design, 2021).
Read-outs that look alike come from different tables or passages of the source.

Tests used:
[1] = thiol reactivity, cited from earlier work
OTUB2 = conditions: experimental actives if % labeling higher than 50%; cited from earlier work
NUDT7 = conditions: protein labeling at 200 μM; experimental actives if % labeling higher than 50%; cited from earlier work
[2] = natural log of average rate constant k
[3] = natural logarithm of average rate constant

SMILES	ln(avg k) [1, 2]	ln(avg k) [1, 3]	OTUB2 % labeling (OTUB2)	NUDT7 % labeling (NUDT7)
Cc1ccc(N(C(=O)CCl)C2C=CS(=O)(=O)C2)cc1 (centres unmarked) [PCM-0102539, Cc1ccc(N(C(=O)CCl)C2C=CS(=O)(=O)C2)cc1]	-15.258	-15.258	16%	33%
O=C(CCl)Nc1cc([N+](=O)[O-])ccc1F [PCM-0102544, O=C(CCl)Nc1cc([N+](=O)[O-])ccc1F]	-15.793	-15.793	31%	0%
COC(=O)c1cc(NC(=O)CCl)cn1C [PCM-0102545, COC(=O)c1cc(NC(=O)CCl)cn1C]	-15.579	-15.579	33%	0%
CC1(C)C(=O)Nc2ccccc2N1C(=O)CCl [PCM-0102546, CC1(C)C(=O)Nc2ccccc2N1C(=O)CCl]	-15.068	-15.068	32%	18%
O=C(CCl)N=c1sccn1Cc1ccccc1Cl [PCM-0102550, O=C(CCl)N=c1sccn1Cc1ccccc1Cl]	-15.426	-15.426	0%	11%
Cc1ccc(CN(C)C(=O)CCl)c(C)c1 [PCM-0102552, Cc1ccc(CN(C)C(=O)CCl)c(C)c1]	-16.104	-16.104	0%	19%
CC(C)(O)CNC(=O)CCl [PCM-0102554, CC(C)(O)CNC(=O)CCl]	-16.972	-16.972	0%	0%
CC(c1ccc(Cl)cc1)N(C)C(=O)CCl (centres unmarked) [PCM-0102556, CC(c1ccc(Cl)cc1)N(C)C(=O)CCl]	-15.842	-15.842	0%	39%
COc1ccc(C2CCCCCN2C(=O)CCl)cc1 (centres unmarked) [PCM-0102558, COc1ccc(C2CCCCCN2C(=O)CCl)cc1]	-16.020	-16.020	0%	100%
CC(NC(=O)CCl)C1CC2CCC1C2 (centres unmarked) [PCM-0102572, CC(NC(=O)CCl)C1CC2CCC1C2]	-17.138	-17.138	0%	0%
O=C(NC1CCN(C(=O)CCl)CC1)c1ccccc1 [PCM-0102575, O=C(NC1CCN(C(=O)CCl)CC1)c1ccccc1]	-15.398	-15.398	9%	9%
Cc1ccc(NC(=O)CCl)cc1I [PCM-0102577, Cc1ccc(NC(=O)CCl)cc1I]	-15.945	-15.945	80%	34%
O=C(CCl)NCc1ccc2c(c1)OCO2 [PCM-0102578, O=C(CCl)NCc1ccc2c(c1)OCO2]	-16.736	-16.736	16%	0%
Cc1cccc(N(C(=O)CCl)C2C=CS(=O)(=O)C2)c1 (centres unmarked) [PCM-0102579, Cc1cccc(N(C(=O)CCl)C2C=CS(=O)(=O)C2)c1]	-15.240	-15.240	0%	40%
N#Cc1c(NC(=O)CCl)sc2c1CCCC2 [PCM-0102580, N#Cc1c(NC(=O)CCl)sc2c1CCCC2]	-16.105	-16.105	10%	72%
O=C(CCl)Nc1ccc(N2CCOCC2)cc1 [PCM-0102582, O=C(CCl)Nc1ccc(N2CCOCC2)cc1]	-15.715	-15.715	54%	0%
NC(=O)C1CCN(C(=O)CCl)CC1 [PCM-0102584, NC(=O)C1CCN(C(=O)CCl)CC1]	-15.701	-15.701	0%	0%
O=C(CCl)Nc1cc2c(cc1Cl)OCCO2 [PCM-0102585, O=C(CCl)Nc1cc2c(cc1Cl)OCCO2]	-16.394	-16.394	0%	12%

SMILES	ln(avg k) [1, 2]	ln(avg k) [1, 3]	OTUB2 % labeling (OTUB2)	NUDT7 % labeling (NUDT7)
Cc1n[nH]c(C)c1NC(=O)CCl [PCM-0102588, Cc1n[nH]c(C)c1NC(=O)CCl]	-16.991	-16.991	0%	0%
COC(=O)c1ccccc1N(C)C(=O)CCl [PCM-0102589, COC(=O)c1ccccc1N(C)C(=O)CCl]	-16.323	-16.323	0%	15%
O=C(CCl)Nc1cc(C(=O)O)ccc1Cl [PCM-0102590, O=C(CCl)Nc1cc(C(=O)O)ccc1Cl]	-17.114	-17.114	0%	0%
CN(Cc1ccccc1Br)C(=O)CCl [PCM-0102592, CN(Cc1ccccc1Br)C(=O)CCl]	-16.295	-16.295	12%	14%
CCN(C(=O)CCl)C1CC1 [PCM-0102594, CCN(C(=O)CCl)C1CC1]	-17.070	-17.070	0%	0%
O=C(CCl)NCC1CCOC1 (centres unmarked) [PCM-0102596, O=C(CCl)NCC1CCOC1]	-16.248	-16.248	13%	0%
CC(NC(=O)CCl)C(=O)N1CCCCC1 (centres unmarked) [PCM-0102598, CC(NC(=O)CCl)C(=O)N1CCCCC1]	-16.794	-16.794	0%	0%
O=C(CCl)Nc1ccc(N2CCCCC2)cc1 [PCM-0102612, O=C(CCl)Nc1ccc(N2CCCCC2)cc1]	-16.206	-16.206	37%	0%
O=C(CCl)NC(=O)Nc1ccc2c(c1)OCCO2 [PCM-0102614, O=C(CCl)NC(=O)Nc1ccc2c(c1)OCCO2]	-16.380	-16.380	27%	23%
O=C(CCl)N1CCOC(c2ccc(F)cc2)C1 (centres unmarked) [PCM-0102615, O=C(CCl)N1CCOC(c2ccc(F)cc2)C1]	-15.513	-15.513	0%	0%
CC1CCCC(C)N1C(=O)CCl (centres unmarked) [PCM-0102616, CC1CCCC(C)N1C(=O)CCl]	-15.945	-15.945	0%	0%
CCc1cccc(C)c1NC(=O)CCl [PCM-0102618, CCc1cccc(C)c1NC(=O)CCl]	-17.017	-17.017	0%	11%
O=C(CCl)NC1CCN(C(=O)c2ccco2)CC1 [PCM-0102619, O=C(CCl)NC1CCN(C(=O)c2ccco2)CC1]	-16.352	-16.352	10%	0%
CC(C)(C)c1ccc(NC(=O)CCl)cc1 [PCM-0102622, CC(C)(C)c1ccc(NC(=O)CCl)cc1]	-15.995	-15.995	32%	0%
Cc1ccc(NC(=O)NC(=O)CCl)cc1 [PCM-0102623, Cc1ccc(NC(=O)NC(=O)CCl)cc1]	-16.273	-16.273	0%	11%
Cc1ccc(C(=O)O)cc1NC(=O)CCl [PCM-0102624, Cc1ccc(C(=O)O)cc1NC(=O)CCl]	-17.065	-17.065	0%	0%
O=C(CCl)N1CCCc2cc(S(=O)(=O)N3CCCC3)ccc21 [PCM-0102625, O=C(CCl)N1CCCc2cc(S(=O)(=O)N3CCCC3)ccc21]	-15.992	-15.992	0%	0%
